Legend:
rM3Ds [1] = target: T1, rM3Ds (Rattus norvegicus, UniProt P08483, A177S/A238G/A489L/DEL261-437/DEL441-478/E258S/I253V/I483M/INS256[…]/K178L/K182A/K255R/K484R/K486H/L173F/L482A/M480V/R171S/R176Q/R179M/S481M/T174R/T181R/T257A/Y148C); test: Slice whole-cell recordings of rM3Ds-transduced MSNs; type: cell-based, mice; conditions: AAV8R12-G88P7-rM3Ds-2A-EYFP
T1 construct: rM3Ds; 2A-EYFP (C); host or cells: AAV8R12-transduced striatal D1-MSNs of mice and cynomolgus macaques (in vivo and acute slices)
From the text: (§1) Mice from different groups were anesthetized with […] isoflurane, and then decapitated. The brain was quickly extracted and placed in ice-cold N-methyl-D-glucamine (NMDG) cutting solution containing (in mM): 92 NMDG, 2.5 KCl, 25 NaHCO3, 1.25 NaH2PO4, 4.5 D-Glucose, 20 HEPES, 5 L-ascorbic acid, 3 Na-pyruvate, 2 Thiourea, 10 MgSO4, 0.5 CaCl2). The pH was adjusted to 7.2±0.1 using HCl and the osmolarity was adjusted to 305±5 mosmol/L using NMDG. The solution was bubbled with 95% O2/5% CO2 prior to use. Coronal striatum slices were cut in 250-[…]m thickness with a vibratome slicer (Leica, VT1200 S), and then incubated in artificial cerebrospinal fluid (aCSF) saturated with 95% O2/5% CO2 for at least 45 min at 37° C. before recording. The aCSF contains (in mM) 125 NaCl, 1.25 KCl, 25 NaHCO3, 1.25 KH2PO4, 25 D-Glucose, 2 CaCl2) and 1 MgCl2, supplemented with 2 mM Na-pyruvate, 3 mM Myo-inositol and 0.4 mM L-ascorbic acid.
(§2) The acute striatum slice was transferred to the recording chamber with a constant perfusion of oxygenized aCSF at the rate of 3 ml/min. Neurons were visualized using an upright microscope (Olympus, BX-51) with a 40×water immersion objective at room temperature (˜25° C.). […] Neurons were quickly visualized under fluorescence microscope and then patch clamp were achieved under infrared light illumination and CCD camera. […]

hM3Dq = hM3Dq (Homo sapiens, UniProt P20309, A239G/Y149C); test: Slice whole-cell recordings of hM3Dq-transduced MSNs; type: cell-based, mice; set-up: 2A-EYFP (C); host or cells: AAV8R12-transduced EYFP+ striatal MSNs in acute mouse brain slices; conditions: AAV8R12-G88P3-HA-hM3Dq-2A-EYFP; CNO 10 μM; basal firing rate and resting membrane potential unaffected
From the text: as §1, §2

rM3Ds [2] = target: T2, rM3Ds (Rattus norvegicus, UniProt P08483, A177S/A238G/A489L/DEL261-437/DEL441-478/E258S/I253V/I483M/INS256[…]/K178L/K182A/K255R/K484R/K486H/L173F/L482A/M480V/R171S/R176Q/R179M/S481M/T174R/T181R/T257A/Y148C); test: In vivo electrophysiological recording in caudate/putamen of MPP+ lesioned macaques; set-up: rM3Ds; 2A-EYFP (C); host or cells: AAV8R12-transduced striatal D1-MSNs of mice and cynomolgus macaques (in vivo and acute slices)
T2 sequence (P08483 with tags, fused parts or gaps Y148C/R171S/L173F/T174R/R176Q/A177S/K178L/R179M/T181R/K182A/A238G/I253V/K255R/INS256[…]/T257A/E258S/DEL261-437/DEL441-478/M480V/S481M/L482A/I483M/K484R/K486H/A489L): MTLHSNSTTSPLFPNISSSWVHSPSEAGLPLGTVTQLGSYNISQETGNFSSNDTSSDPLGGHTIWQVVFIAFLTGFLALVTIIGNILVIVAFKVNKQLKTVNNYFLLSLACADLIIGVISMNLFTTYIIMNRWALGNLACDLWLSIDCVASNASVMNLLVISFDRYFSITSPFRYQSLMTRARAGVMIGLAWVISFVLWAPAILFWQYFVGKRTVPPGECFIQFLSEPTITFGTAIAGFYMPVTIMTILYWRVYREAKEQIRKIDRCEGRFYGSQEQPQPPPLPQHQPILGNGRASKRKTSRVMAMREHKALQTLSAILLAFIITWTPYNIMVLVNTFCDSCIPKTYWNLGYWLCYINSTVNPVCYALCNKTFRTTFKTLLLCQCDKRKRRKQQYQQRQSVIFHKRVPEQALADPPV
Description: Electrophysiological recording was performed through a recording chamber while the monkey was anesthetized. Neural responses were recorded by a 16-channel linear probe (Plexon Inc, Uprobe) driven by a mechanical microdrive (Alpha Omega, FlexMT). Signals were passed through a head stage (Plexon Inc, HST/16V-G20 LN) and then split and filtered between 300 Hz and 5 kHz to identify spiking activity with an amplifier system (Plexon Inc, OmniPlex). Detected spikes were then sorted by commercially available software (Plexon Inc, Offline Sorter) for further analysis. To quantify the effect of CNO/DCZ injection, neural activity was recorded for 60 minutes following CNO/DCZ injection. The response time-course for each channel was obtained by counting the spikes within every 10-minute window and then normalizing to the maximal.
To determine the effect of CNO/DCZ injection on the direction of signal change, we performed Pearson correlation between neural responses and time using the ‘corr’ function in Matlab, which generates the correlation coefficient ‘r’ and significant level ‘p’. A neuron was considered to have “Increased” activity when r>0 and p<0.05; and considered to have “Decreased” activity when r<0 and p<0.05. Otherwise, neurons were considered to be “Unchanged” in their neural activities. The responses of all increased neurons were then averaged after being normalized by the maximal response (Crowe et al., 2014; Dai and Wang, 2018; Hirokawa et al., 2019) following CNO/DCZ injection, and then plotted as a function of time to generate the normalized population response.

Chain of hM3Dq (P20309 whole entry Y149C/A239G): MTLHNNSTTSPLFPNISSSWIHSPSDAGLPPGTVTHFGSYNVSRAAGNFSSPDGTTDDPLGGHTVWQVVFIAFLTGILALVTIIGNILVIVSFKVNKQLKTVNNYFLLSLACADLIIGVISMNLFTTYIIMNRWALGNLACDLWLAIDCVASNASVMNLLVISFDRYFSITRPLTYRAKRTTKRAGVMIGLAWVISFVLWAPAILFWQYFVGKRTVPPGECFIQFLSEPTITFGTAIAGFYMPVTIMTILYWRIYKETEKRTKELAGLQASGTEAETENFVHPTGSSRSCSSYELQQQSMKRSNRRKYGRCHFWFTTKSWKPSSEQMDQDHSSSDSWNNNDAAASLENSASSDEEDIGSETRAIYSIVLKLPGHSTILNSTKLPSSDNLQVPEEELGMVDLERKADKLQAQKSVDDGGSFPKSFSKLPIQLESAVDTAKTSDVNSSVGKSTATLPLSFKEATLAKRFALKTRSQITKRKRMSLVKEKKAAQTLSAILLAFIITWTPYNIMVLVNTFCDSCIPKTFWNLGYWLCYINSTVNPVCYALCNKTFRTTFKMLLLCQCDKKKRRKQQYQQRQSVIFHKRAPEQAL

## C[N+]1([O-])CCN(C2=Nc3cc(Cl)ccc3Nc3ccccc32)CC1 [CNO, clozapine N-oxide]
rM3Ds [1]; 6-OHDA mice, not with AAV8R12-G88P7-EYFP
  excitability of D1-MSNs in parkinsonian mice: increased excitability
rM3Ds [1]; CNO 10 μM, no effect on basal firing rate or resting membrane potential
  excitability of labeled striatal MSNs: enhancement in the excitability
hM3Dq
  excitability of transduced MSNs: augmentation of excitability
rM3Ds [2]; CNO 36 cells, DCZ 31 cells, saline 17.9%
  caudate/putamen cells activated (FIG. 15G): 52.8%
rM3Ds [2]; saline 33.4%
  caudate/putamen cells inactivated (FIG. 15G): 13.9%
rM3Ds [2]; saline 48.7%
  caudate/putamen cells unchanged (FIG. 15G): 33.3%

From US20250381307A1, “RETRO-AAV AND USE IN TREATING NEURODEGENERATIVE DISEASES” (priority 2023, published 2025)
